Patent US20050282755A1, “Compositions having antimicrobial activity and uses thereof” (priority 2004, published 2005)
In brackets after ≈: the same amount, converted by molar mass. Starred links: 1 amine or outer side, 2 acyl side, 3 side chain; linkers in the order of their positions; H or OH if unused. Non-standard residues stand in square brackets, D forms with d. Residues, ends and D or L forms follow the SMILES beside them. *: point of attachment. Ethylenediamine = C(CN[*:2])N[*:1]; Palmitoyl = CCCCCCCCCCCCCCCC(=O)*; Lauroyl = CCCCCCCCCCCC(=O)*; Octanoyl = CCCCCCCC(=O)*; Hexanoyl = CCCCCC(=O)*

Tests used:
Assay type in all cases: cell-based
Salmonella dublin (Lane) = experiment: MIC, NCCLS M7-A6 broth microdilution (Table 9, no superscript)
Method in brief: (§1)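 MIC determined by microdilution in cation-adjusted Mueller Hinton broth after overnight growth at 37° C, defined as the lowest peptide level lacking turbidity.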

[1] = system: Pseudomonas aeruginosa ATCC 27853; experiment: as above; details: ATCC 27853
Method in brief: as §1

[2] = system: Escherichia coli ATCC 25922; experiment: as above; details: ATCC 25922
Method in brief: as §1

[3] = system: Staphylococcus epidermidis ATCC 12228; experiment: as above; details: ATCC 12228
Method in brief: as §1

[4] = system: Staphylococcus aureus ATCC 29213; experiment: MIC, NCCLS M7-A6 broth microdilution, cation-adjusted Mueller Hinton broth (Table 9, no superscript); details: ATCC 29213
Method in brief: as §1

CCCCCCCCCCCC(=O)N[C@@H](CO)C(=O)N[C@@H](CCCNC(=N)N)C(=O)N[C@@H](Cc1c[nH]c2ccccc12)C(=O)N[C@@H](CCCNC(=N)N)C(=O)N[C@@H](CC(=O)O)C(=O)N[C@H](C(=O)N[C@@H](C)C(=O)N[C@@H](CCCNC(=N)N)C(=O)N[C@@H](CC(N)=O)C(=O)N[C@@H](Cc1ccccc1)C(=O)N[C@@H](CC(C)C)C(=O)N[C@@H](CCCNC(=N)N)C(N)=O)C(C)C [Peptide 162, Lauryl-SRWRDVARNFLR-NH2] (Lauroyl-SRWRDVARNFLR-NH2)
MIC S. dublin (Salmonella dublin (Lane)): 16 µg/mL (≈ 9.11 µM) | MIC P. aeruginosa [1]: >64 µg/mL | MIC E. coli [2]: 32 µg/mL (≈ 18.2 µM) | MIC S. epidermidis [3]: 8 µg/mL (≈ 4.55 µM) | MIC S. aureus [4]: 4 µg/mL (≈ 2.28 µM)

CCCCCCCCCCCCCCCC(=O)NCCNC(=O)[C@H](CCCNC(=N)N)NC(=O)[C@H](CC(C)C)NC(=O)[C@H](Cc1ccccc1)NC(=O)[C@H](CC(N)=O)NC(=O)[C@H](CCCNC(=N)N)NC(=O)[C@H](C)NC(=O)[C@@H](NC(=O)[C@H](CC(=O)O)NC(=O)[C@H](CCCNC(=N)N)NC(=O)[C@H](Cc1c[nH]c2ccccc12)NC(=O)[C@H](CCCNC(=N)N)NC(=O)[C@H](CO)NC(=O)[C@@H](N)CCCNC(=N)N)C(C)C [Peptide 172, H2N-RSRWRDVARNFLR-Ethylamidopalmitoyl] (H-RSRWRDVARNFLR-{Ethylenediamine-Palmitoyl}; C-terminus assumed)
MIC S. dublin (Salmonella dublin (Lane)): >64 µg/mL | MIC P. aeruginosa [1]: >64 µg/mL | MIC E. coli [2]: >64 µg/mL | MIC S. epidermidis [3]: 64 µg/mL (≈ 31.8 µM) | MIC S. aureus [4]: >64 µg/mL

CCCCCC(=O)NCCCC[C@H](NC(=O)[C@H](CCCNC(=N)N)NC(=O)[C@H](CC(C)C)NC(=O)[C@H](Cc1ccccc1)NC(=O)[C@H](CC(N)=O)NC(=O)[C@H](CCCNC(=N)N)NC(=O)[C@H](C)NC(=O)[C@@H](NC(=O)[C@H](CC(=O)O)NC(=O)[C@H](CCCNC(=N)N)NC(=O)[C@H](Cc1c[nH]c2ccccc12)NC(=O)[C@H](CCCNC(=N)N)NC(=O)[C@H](CO)NC(=O)[C@@H](N)CCCNC(=N)N)C(C)C)C(N)=O [Peptide 178, H2N-RSRWRDVARNFLRK(Hexanyl)-NH2] (H-RSRWRDVARNFLRK(Hexanoyl)-NH2)
MIC S. dublin (Salmonella dublin (Lane)): 16 µg/mL (≈ 8.17 µM) | MIC P. aeruginosa [1]: 16 µg/mL (≈ 8.17 µM) | MIC E. coli [2]: 8 µg/mL (≈ 4.09 µM) | MIC S. epidermidis [3]: 2 µg/mL (≈ 1.02 µM) | MIC S. aureus [4]: >64 µg/mL

CCCCCCCC(=O)NCCCC[C@H](NC(=O)[C@H](CCCNC(=N)N)NC(=O)[C@H](CC(C)C)NC(=O)[C@H](Cc1ccccc1)NC(=O)[C@H](CC(N)=O)NC(=O)[C@H](CCCNC(=N)N)NC(=O)[C@H](C)NC(=O)[C@@H](NC(=O)[C@H](CC(=O)O)NC(=O)[C@H](CCCNC(=N)N)NC(=O)[C@H](Cc1c[nH]c2ccccc12)NC(=O)[C@H](CCCNC(=N)N)NC(=O)[C@H](CO)NC(=O)[C@@H](N)CCCNC(=N)N)C(C)C)C(N)=O [Peptide 179, H2N-RSRWRDVARNFLRK(Octanyl)-NH2] (H-RSRWRDVARNFLRK(Octanoyl)-NH2)
MIC S. dublin (Salmonella dublin (Lane)): 64 µg/mL (≈ 32.2 µM) | MIC P. aeruginosa [1]: 64 µg/mL (≈ 32.2 µM) | MIC E. coli [2]: 32 µg/mL (≈ 16.1 µM) | MIC S. epidermidis [3]: 8 µg/mL (≈ 4.03 µM) | MIC S. aureus [4]: 32 µg/mL (≈ 16.1 µM)

CCCCCCCCCCCCCCCC(=O)NCCCC[C@H](NC(=O)[C@H](CCCNC(=N)N)NC(=O)[C@H](CC(C)C)NC(=O)[C@H](Cc1ccccc1)NC(=O)[C@H](CC(N)=O)NC(=O)[C@H](CCCNC(=N)N)NC(=O)[C@H](C)NC(=O)[C@@H](NC(=O)[C@H](CC(=O)O)NC(=O)[C@H](CCCNC(=N)N)NC(=O)[C@H](Cc1c[nH]c2ccccc12)NC(=O)[C@H](CCCNC(=N)N)NC(=O)[C@H](CO)NC(=O)[C@@H](N)CCCNC(=N)N)C(C)C)C(N)=O [Peptide 182, H2N-RSRWRDVARNFLRK(Palmitoyl)-NH2] (H-RSRWRDVARNFLRK(Palmitoyl)-NH2)
MIC S. dublin (Salmonella dublin (Lane)): 32 µg/mL (≈ 15.3 µM) | MIC P. aeruginosa [1]: 64 µg/mL (≈ 30.5 µM) | MIC E. coli [2]: >64 µg/mL | MIC S. epidermidis [3]: 4 µg/mL (≈ 1.91 µM) | MIC S. aureus [4]: 32 µg/mL (≈ 15.3 µM)

CCCCCCCC(=O)NCCCC[C@H](NC(=O)[C@H](CCCNC(=N)N)NC(=O)[C@H](CCSC)NC(=O)[C@H](Cc1ccccc1)NC(=O)[C@H](CC(N)=O)NC(=O)[C@H](CCCNC(=N)N)NC(=O)[C@H](C)NC(=O)[C@@H](NC(=O)[C@H](CC(=O)O)NC(=O)[C@H](CCCNC(=N)N)NC(=O)[C@H](Cc1c[nH]c2ccccc12)NC(=O)[C@H](CCCNC(=N)N)NC(=O)[C@H](CO)NC(=O)[C@@H](N)CCCNC(=N)N)C(C)C)C(N)=O [Peptide 184, H2N-RSRWRDVARNFMRK(Octanyl)-NH2] (H-RSRWRDVARNFMRK(Octanoyl)-NH2)
MIC S. dublin (Salmonella dublin (Lane)): 16 µg/mL (≈ 7.99 µM) | MIC P. aeruginosa [1]: >64 µg/mL | MIC E. coli [2]: 16 µg/mL (≈ 7.99 µM) | MIC S. epidermidis [3]: 2 µg/mL (≈ 0.998 µM) | MIC S. aureus [4]: 64 µg/mL (≈ 31.9 µM)

CCCCCC(=O)N[C@H](CCCNC(=N)N)C(=O)N[C@H](CO)C(=O)N[C@H](CCCNC(=N)N)C(=O)N[C@H](Cc1c[nH]c2ccccc12)C(=O)N[C@H](CCCNC(=N)N)C(=O)N[C@H](CC(=O)O)C(=O)N[C@@H](C(=O)N[C@H](C)C(=O)N[C@H](CCCNC(=N)N)C(=O)N[C@H](CC(N)=O)C(=O)N[C@H](Cc1ccccc1)C(=O)N[C@H](CC(C)C)C(=O)N[C@H](CCCNC(=N)N)C(N)=O)C(C)C [Peptide 188, Hexyl-rsrwrdvarnflr-NH2] (Hexanoyl-[dR][dS][dR][dW][dR][dD][dV][dA][dR][dN][dF][dL][dR]-NH2)
MIC S. dublin (Salmonella dublin (Lane)): >64 µg/mL | MIC P. aeruginosa [1]: >64 µg/mL | MIC E. coli [2]: 64 µg/mL (≈ 35 µM) | MIC S. epidermidis [3]: 16 µg/mL (≈ 8.75 µM) | MIC S. aureus [4]: >64 µg/mL

CCCCCCCC(=O)N[C@H](CCCNC(=N)N)C(=O)N[C@H](CO)C(=O)N[C@H](CCCNC(=N)N)C(=O)N[C@H](Cc1c[nH]c2ccccc12)C(=O)N[C@H](CCCNC(=N)N)C(=O)N[C@H](CC(=O)O)C(=O)N[C@@H](C(=O)N[C@H](C)C(=O)N[C@H](CCCNC(=N)N)C(=O)N[C@H](CC(N)=O)C(=O)N[C@H](Cc1ccccc1)C(=O)N[C@H](CC(C)C)C(=O)N[C@H](CCCNC(=N)N)C(N)=O)C(C)C [Peptide 189, Octyl-rsrwrdvarnflr-NH2] (Octanoyl-[dR][dS][dR][dW][dR][dD][dV][dA][dR][dN][dF][dL][dR]-NH2)
MIC S. dublin (Salmonella dublin (Lane)): 8 µg/mL (≈ 4.31 µM) | MIC P. aeruginosa [1]: 32 µg/mL (≈ 17.2 µM) | MIC E. coli [2]: 16 µg/mL (≈ 8.62 µM) | MIC S. epidermidis [3]: 4 µg/mL (≈ 2.15 µM) | MIC S. aureus [4]: 32 µg/mL (≈ 17.2 µM)

CCCCCCCCCCCCCCCC(=O)N[C@H](CCCNC(=N)N)C(=O)N[C@H](CO)C(=O)N[C@H](CCCNC(=N)N)C(=O)N[C@H](Cc1c[nH]c2ccccc12)C(=O)N[C@H](CCCNC(=N)N)C(=O)N[C@H](CC(=O)O)C(=O)N[C@@H](C(=O)N[C@H](C)C(=O)N[C@H](CCCNC(=N)N)C(=O)N[C@H](CC(N)=O)C(=O)N[C@H](Cc1ccccc1)C(=O)N[C@H](CC(C)C)C(=O)N[C@H](CCCNC(=N)N)C(N)=O)C(C)C [Peptide 191, Palmitoyl-rsrwrdvarnflr-NH2] (Palmitoyl-[dR][dS][dR][dW][dR][dD][dV][dA][dR][dN][dF][dL][dR]-NH2)
MIC S. dublin (Salmonella dublin (Lane)): 8 µg/mL (≈ 4.06 µM) | MIC P. aeruginosa [1]: >64 µg/mL | MIC E. coli [2]: 64 µg/mL (≈ 32.5 µM) | MIC S. epidermidis [3]: 4 µg/mL (≈ 2.03 µM) | MIC S. aureus [4]: 64 µg/mL (≈ 32.5 µM)

CCCCCCCCCCCCCCCC(=O)NCCCC[C@@H](NC(=O)[C@@H](CCCNC(=N)N)NC(=O)[C@@H](CC(C)C)NC(=O)[C@@H](Cc1ccccc1)NC(=O)[C@@H](CC(N)=O)NC(=O)[C@@H](CCCNC(=N)N)NC(=O)[C@@H](C)NC(=O)[C@H](NC(=O)[C@@H](CC(=O)O)NC(=O)[C@@H](CCCNC(=N)N)NC(=O)[C@@H](Cc1c[nH]c2ccccc12)NC(=O)[C@@H](CCCNC(=N)N)NC(=O)[C@@H](CO)NC(=O)[C@H](N)CCCNC(=N)N)C(C)C)C(N)=O [Peptide 196, H2N-rsrwrdvarnflrk(Palmitoyl)-NH2] (H-[dR][dS][dR][dW][dR][dD][dV][dA][dR][dN][dF][dL][dR][dK](Palmitoyl)-NH2)
MIC S. dublin (Salmonella dublin (Lane)): 64 µg/mL (≈ 30.5 µM) | MIC P. aeruginosa [1]: >64 µg/mL | MIC E. coli [2]: >64 µg/mL | MIC S. epidermidis [3]: 32 µg/mL (≈ 15.3 µM) | MIC S. aureus [4]: 64 µg/mL (≈ 30.5 µM)

CCCCCC(=O)N[C@H](CCCNC(=N)N)C(=O)N[C@H](CO)C(=O)N[C@H](CCCNC(=N)N)C(=O)N[C@H](Cc1c[nH]c2ccccc12)C(=O)N[C@H](CCCNC(=N)N)C(=O)N[C@H](CC(=O)O)C(=O)N[C@@H](C(=O)N[C@H](C)C(=O)N[C@H](CCCNC(=N)N)C(=O)N[C@H](CC(N)=O)C(=O)N[C@H](Cc1ccccc1)C(=O)N[C@H](CCSC)C(=O)N[C@H](CCCNC(=N)N)C(N)=O)C(C)C [Peptide 206, Hexyl-rsrwrdvarnfmr-NH2] (Hexanoyl-[dR][dS][dR][dW][dR][dD][dV][dA][dR][dN][dF][dM][dR]-NH2)
MIC S. dublin (Salmonella dublin (Lane)): >64 µg/mL | MIC P. aeruginosa [1]: >64 µg/mL | MIC E. coli [2]: 64 µg/mL (≈ 34.6 µM) | MIC S. epidermidis [3]: 32 µg/mL (≈ 17.3 µM) | MIC S. aureus [4]: >64 µg/mL

CCCCCCCCCCCC(=O)N[C@H](CCCNC(=N)N)C(=O)N[C@H](C)C(=O)N[C@H](CCCNC(=N)N)C(=O)N[C@H](Cc1c[nH]c2ccccc12)C(=O)N[C@H](CCCNC(=N)N)C(=O)N[C@H](C)C(=O)N[C@@H](C(=O)N[C@H](C)C(=O)N[C@H](CCCNC(=N)N)C(=O)N[C@H](C)C(=O)N[C@H](Cc1ccccc1)C(=O)N[C@H](C)C(=O)N[C@H](CCCNC(=N)N)C(N)=O)C(C)C [Peptide 217, Lauryl-rarwravarafar-NH2] (Lauroyl-[dR][dA][dR][dW][dR][dA][dV][dA][dR][dA][dF][dA][dR]-NH2)
MIC S. dublin (Salmonella dublin (Lane)): 2 µg/mL (≈ 1.13 µM) | MIC P. aeruginosa [1]: 8 µg/mL (≈ 4.52 µM) | MIC E. coli [2]: 16 µg/mL (≈ 9.05 µM) | MIC S. epidermidis [3]: 2 µg/mL (≈ 1.13 µM) | MIC S. aureus [4]: 1 µg/mL (≈ 0.566 µM)
